How the values were obtained:
[1] = compound: Cc1cc(Nc2ncc(Cl)c(Nc3ccccc3S(=O)(=O)C(C)C)n2)c(OC(C)C)cc1C1CCNCC1 [Ceritinib/LDK378]
[2] = compound: CN(C)C/C=C/C(=O)NC1=CC=C(C=C1)C(=O)NC2=CC=CC(=C2)NC3=NC=NC(=C3)C4=CNC5=CC=CC=C54 [THZ-P1-2]
[3] = compound: CCCCOc1c(C(=O)c2c(F)cc(C)cc2F)c[nH]c2nncc1-2
[4] = compound: CN1CCN(CCOc2cc(OC3CCOCC3)c3c(Nc4c(Cl)ccc5c4OCO5)ncnc3c2)CC1 [Saracatinib/AZD0530]
[5] = compound: CCNC(=O)c1noc(-c2cc(C(C)C)c(O)cc2O)c1-c1ccc(CN2CCOCC2)cc1 [Luminespib/NVP-AUY922]
[6] = compound: CN(C)C/C=C/C(=O)Nc1ccc(O[C@@H]2CCC[C@@H](Nc3ncc(Cl)c(-c4c[nH]c5ccccc45)n3)C2)cc1 [BSJ-01-175]
[7] = compound: CCOc1cc2ncc(C#N)c(Nc3ccc(OCc4ccccn4)c(Cl)c3)c2cc1NC(=O)/C=C/CN(C)C [Neratinib/HKI272]; assay: increase in dead-cell fraction, 72 h; higher = more death;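 also: breast cancer cell lines in 384-well plates, stained with Hoechst plus LIVE/DEAD far red dye and imaged, cells above an LDR intensity threshold counted dead, Hoechst-negative corpses included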
[8] = compound: CN(C)C/C=C/C(=O)Nc1ccc(C(=O)Nc2cccc(Nc3ncc(Cl)c(-c4c[nH]c5ccccc45)n3)c2)cc1 [THZ1]; assay: as above
[9] = compound: CCN1CCN(Cc2ccc(Nc3ncc(F)c(-c4cc(F)c5nc(C)n(C(C)C)c5c4)n3)nc2)CC1; assay: as above
[10] = compound: C=CC(=O)Nc1ccc(C(=O)Nc2[nH]nc3c2CN(C(=O)N[C@H](CN(C)C)c2ccccc2)C3(C)C)cc1 [YKL-5-124]; assay: as above
[11] = compound: CN(C)C/C=C/C(=O)Nc1ccc(C(=O)N2CCC[C@@H](Nc3ncc(Cl)c(-c4c[nH]c5ccccc45)n3)C2)cc1 [THZ531]; assay: as above
[12] = compound: CN(C)C(=O)c1cc2cnc(Nc3ccc(N4CCNCC4)cn3)nc2n1C1CCCC1 [LEE011/Ribociclib]; assay: as above
[13] = compound: CC(=O)c1c(C)c2cnc(Nc3ccc(N4CCNCC4)cn3)nc2n(C2CCCC2)c1=O; assay: as above
[14] = compound: CC(=O)c1c(C)c2cnc(Nc3ccc(N4CCN(CCOCCOCCOCCNC(=O)COc5cccc6c5C(=O)N(C5CCC(=O)NC5=O)C6=O)CC4)cn3)nc2n(C2CCCC2)c1=O [BSJ-03-123]; assay: as above
[15] = compound: CN1CC[C@H](c2c(O)cc(O)c3c(=O)cc(-c4ccccc4Cl)oc23)[C@H](O)C1 [Flavopiridol]; assay: as above
[16] = compound: CCc1cnn2c(NCc3ccc[n+]([O-])c3)cc(N3CCCC[C@H]3CCO)nc12; assay: as above
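For GR50, 72 h in this document: breast cancer and non-malignant breast epithelial cell lines, Deep Dye Drop or Dye Drop imaging, nine half-log doses, GR normalized to time-zero plates and DMSO-only controls.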

Cell Line: BT549
- GR50, 72 h [1]: 2.96 µM
- GR50, 72 h [2]: 7.26 µM
- GR50, 72 h [3]: 0.00106 µM
- GR50, 72 h [4]: > 10 µM
- GR50, 72 h [5]: 0.00539 µM
- GR50, 72 h [6]: 0.737 µM
- increase in dead-cell fraction ([7]; 0.0003162 µM): 0.0052
- increase in dead-cell fraction ([7]; 0.001 µM): 0.0037
- increase in dead-cell fraction ([7]; 0.003162 µM): 0.0077
- increase in dead-cell fraction ([7]; 0.01 µM): -0.001
- increase in dead-cell fraction ([7]; 0.03162 µM): 0.0074
- increase in dead-cell fraction ([7]; 0.1 µM): -0.0081
- increase in dead-cell fraction ([7]; 0.3162 µM): 0.0066
- increase in dead-cell fraction ([7]; 1 µM): 0.0035
- increase in dead-cell fraction ([7]; 3.162 µM): 0.102
- increase in dead-cell fraction ([8]; 0.0001 µM): -0.0033
- increase in dead-cell fraction ([8]; 0.0003162 µM): -0.0013
- increase in dead-cell fraction ([8]; 0.001 µM): -0.0005
- increase in dead-cell fraction ([8]; 0.003162 µM): -0.0025
- increase in dead-cell fraction ([8]; 0.01 µM): 0.0024
- increase in dead-cell fraction ([8]; 0.03162 µM): 0.0096
- increase in dead-cell fraction ([8]; 0.1 µM): 0.112
- increase in dead-cell fraction ([8]; 0.3162 µM): 0.179
- increase in dead-cell fraction ([8]; 1 µM): 0.27
- increase in dead-cell fraction ([9]; 0.001 µM): -0.0017
- increase in dead-cell fraction ([9]; 0.003162 µM): -0.0033
- increase in dead-cell fraction ([9]; 0.01 µM): 0.0079
- increase in dead-cell fraction ([9]; 0.03162 µM): -0.0016
- increase in dead-cell fraction ([9]; 0.1 µM): 0.0009
- increase in dead-cell fraction ([9]; 0.3162 µM): -0.01
- increase in dead-cell fraction ([9]; 1 µM): 0.0019
- increase in dead-cell fraction ([9]; 3.162 µM): 0.024
- increase in dead-cell fraction ([9]; 10 µM): 0.139
- increase in dead-cell fraction ([10]; 0.001 µM): 0.0189
- increase in dead-cell fraction ([10]; 0.003162 µM): 0.0362
- increase in dead-cell fraction ([10]; 0.01 µM): 0.097
- increase in dead-cell fraction ([10]; 0.03162 µM): 0.158
- increase in dead-cell fraction ([10]; 0.1 µM): 0.169
- increase in dead-cell fraction ([10]; 0.3162 µM): 0.169
- increase in dead-cell fraction ([10]; 1 µM): 0.196
- increase in dead-cell fraction ([10]; 3.162 µM): 0.228
- increase in dead-cell fraction ([10]; 10 µM): 0.614
- increase in dead-cell fraction ([11]; 0.0001 µM): 0
- increase in dead-cell fraction ([11]; 0.0003162 µM): 0
- increase in dead-cell fraction ([11]; 0.001 µM): 0.0005
- increase in dead-cell fraction ([11]; 0.003162 µM): 0.0003
- increase in dead-cell fraction ([11]; 0.01 µM): -0.0022
- increase in dead-cell fraction ([11]; 0.03162 µM): 0.0026
- increase in dead-cell fraction ([11]; 0.1 µM): 0.0062
- increase in dead-cell fraction ([11]; 0.3162 µM): 0.0485
- increase in dead-cell fraction ([11]; 1 µM): 0.365
- increase in dead-cell fraction ([12]; 0.001 µM): 0.0033
- increase in dead-cell fraction ([12]; 0.003162 µM): -0.0034
- increase in dead-cell fraction ([12]; 0.01 µM): -0.0015
- increase in dead-cell fraction ([12]; 0.03162 µM): -0.0014
- increase in dead-cell fraction ([12]; 0.1 µM): -0.0023
- increase in dead-cell fraction ([12]; 0.3162 µM): -0.0023
- increase in dead-cell fraction ([12]; 1 µM): -0.0003
- increase in dead-cell fraction ([12]; 3.162 µM): 0.0011
- increase in dead-cell fraction ([12]; 10 µM): -0.0008
- increase in dead-cell fraction ([13]; 0.0003162 µM): 0.003
- increase in dead-cell fraction ([13]; 0.001 µM): 0.0092
- increase in dead-cell fraction ([13]; 0.003162 µM): 0.0021
- increase in dead-cell fraction ([13]; 0.01 µM): 0.0028
- increase in dead-cell fraction ([13]; 0.03162 µM): -0.0008
- increase in dead-cell fraction ([13]; 0.1 µM): 0.0025
- increase in dead-cell fraction ([13]; 0.3162 µM): -0.0015
- increase in dead-cell fraction ([13]; 1 µM): -0.0066
- increase in dead-cell fraction ([13]; 3.162 µM): -0.0162
- increase in dead-cell fraction ([14]; 0.001 µM): -0.0011
- increase in dead-cell fraction ([14]; 0.003162 µM): -0.0008
- increase in dead-cell fraction ([14]; 0.01 µM): -0.0008
- increase in dead-cell fraction ([14]; 0.03162 µM): 0.0023
- increase in dead-cell fraction ([14]; 0.1 µM): 0.0017
- increase in dead-cell fraction ([14]; 0.3162 µM): -0.0023
- increase in dead-cell fraction ([14]; 1 µM): 0.0009
- increase in dead-cell fraction ([14]; 3.162 µM): 0.0085
- increase in dead-cell fraction ([14]; 10 µM): 0.184
- increase in dead-cell fraction ([15]; 0.0001 µM): 0.0048
- increase in dead-cell fraction ([15]; 0.0003162 µM): -0.0007
- increase in dead-cell fraction ([15]; 0.001 µM): -0.0015
- increase in dead-cell fraction ([15]; 0.003162 µM): 0.0036
- increase in dead-cell fraction ([15]; 0.01 µM): -0.0014
- increase in dead-cell fraction ([15]; 0.03162 µM): 0.0045
- increase in dead-cell fraction ([15]; 0.1 µM): 0.0204
- increase in dead-cell fraction ([15]; 0.3162 µM): 0.164
- increase in dead-cell fraction ([15]; 1 µM): 0.514
- increase in dead-cell fraction ([16]; 0.0001 µM): -0.0017
- increase in dead-cell fraction ([16]; 0.0003162 µM): -0.0119
- increase in dead-cell fraction ([16]; 0.001 µM): 0.0095
- increase in dead-cell fraction ([16]; 0.003162 µM): 0.0067
- increase in dead-cell fraction ([16]; 0.01 µM): 0.0717
- increase in dead-cell fraction ([16]; 0.03162 µM): 0.309
- increase in dead-cell fraction ([16]; 0.1 µM): 0.338
- increase in dead-cell fraction ([16]; 0.3162 µM): 0.295
- increase in dead-cell fraction ([16]; 1 µM): 0.346
